Legend:
Format in all cases: cell-based, human
BT-549 cells [1] = experiment: Western blot analysis of PARP cleavage after cisplatin treatment; details: parental BT-549 cells, 50 μM cisplatin, 24, 48, 72 hours
Experimental: (§1) FIGS. 4I and 4II show cisplatin induced apoptosis of BT-549 cells and cloned variants, FIG. 4I: % apoptosis in cells treated with 25 uM cisplatin for 72 hr at 37° C. and analyzed following MTT assay (ODs in the untreated control cells were calculated as 100%, and the values are the average of triplicate experiments, bars represent ±SD, *P>0.001), FIG. 4II: Western blot analysis of the expression of PARP in cells treated with 50 μM cisplatin after 24, 48, and 72 hours, IIA: BT-549; IIB: BT-549 Gal-3 H^64; IIC: BT-549 Gal-3 P^64 (β-Actin was used as loading control. 1—untreated; 2—24 hours; 3—48 hours; 4—72 hours), FIGS. 4IIIA-B and 4IIIA′-C′: Immunohistochemical analysis of intact and cleaved galectin-3 in breast cancer progression. To investigate the possible functional significance of this allelic variation, BT-549 stable cell clones over-expressing either Galectin-3 P^64 or H^64 variant after transfection, selection, and cloning of BT-549 galectin-3 null cells were generated. […] In parental and P64 clone, the apoptotic cells were 76.5±1.34% and 71.5±3.02% respectively (FIG. 4I). That the cells' death was due to apoptosis was confirmed by the cleavage of PARP. […] A-A′: normal breast tissue, B-B′: ductal hyperplasia, C-C′: infiltrating lobular carcinoma. Arrows in B′ and C′ indicate the cleaved protein, representative pictures are presented from a study of 5 normal breast tissues, 10 lobular hyperplasia, and 8 infiltrating lobular carcinoma cases. To determine if cell death is due to apoptosis, 1×10^6 cells were seeded in 100 mm Petri dishes. After 24 hours of serum starvation, the cells were incubated with […]. After 24, 48, 72 hours, the cells were trypsinized, lysed and equivalent number of cells (1×10^5) were subjected to SDS-PAGE and Western blot analysis with a 1:200 dilution of anti-poly (ADP-ribose) polymerase (PARP), mouse monoclonal antibody (BioMol, Plymouth Meeting, Pa.). Blots were also immuno-reacted with a 1:5000 dilution of anti-b-actin mouse monoclonal antibody to normalize for variation in protein loading. […]

BT-549 Gal-3 P^64 cells [2] = experiment: as above; details: galectin-3 P^64 expressing cells, 50 μM cisplatin, 24, 48, 72 hours
Experimental: as §1

BT-549 Gal-3 H^64 cells [3] = experiment: as above; details: galectin-3 H^64 cells, 50 μM cisplatin, 24, 48, 72 hours
Experimental: as §1

BT-549 cells [4] = experiment: Cisplatin induced apoptosis, MTT assay; details: parental BT-549 cells, 25 uM cisplatin, 72 hr, 37° C.
Experimental: (§2) FIGS. 4I and 4II show cisplatin induced apoptosis of BT-549 cells and cloned variants, FIG. 4I: % apoptosis in cells treated with 25 uM cisplatin for 72 hr at 37° C. and analyzed following MTT assay (ODs in the untreated control cells were calculated as 100%, and the values are the average of triplicate experiments, bars represent ±SD, *P>0.001), FIG. 4II: Western blot analysis of the expression of PARP in cells treated with 50 μM cisplatin after 24, 48, and 72 hours, IIA: BT-549; IIB: BT-549 Gal-3 H^64; IIC: BT-549 Gal-3 P^64 (β-Actin was used as loading control. 1—untreated; 2—24 hours; 3—48 hours; 4—72 hours), FIGS. 4IIIA-B and 4IIIA′-C′: Immunohistochemical analysis of intact and cleaved galectin-3 in breast cancer progression. To investigate the possible functional significance of this allelic variation, BT-549 stable cell clones over-expressing either Galectin-3 P^64 or H^64 variant after transfection, selection, and cloning of BT-549 galectin-3 null cells were generated. […] In parental and P64 clone, the apoptotic cells were 76.5±1.34% and 71.5±3.02% respectively (FIG. 4I). That the cells' death was due to apoptosis was confirmed by the cleavage of PARP. […] A-A′: normal breast tissue, B-B′: ductal hyperplasia, C-C′: infiltrating lobular carcinoma. Arrows in B′ and C′ indicate the cleaved protein, representative pictures are presented from a study of 5 normal breast tissues, 10 lobular hyperplasia, and 8 infiltrating lobular carcinoma cases. 2500 BT-549, BT-549 Gal-3 H^64 and BT-549 Gal-3 P^64 cells were seeded per well in triplicates onto 24 well culture dishes. In one set of wells, 25 μM cisplatin (Sigma-Aldrich Inc., St. Louis, Mo.) was added after 24 hr of seeding, the other non-treated set served as a control. Cell viability/apoptosis was determined after 72 hours by the mitochondrial-dependent reduction of 3-(4,5-dimethylthiazol-2-yl)-2,5-diphenyltetrazolium bromide (MTT) (Sigma-Aldrich Inc., St. Louis, Mo.) to formazan.

BT-549 Gal-3 P^64 cells [5] = experiment: Cisplatin induced apoptosis, MTT assay; details: BT-549 galectin-3 P64 clone, 25 uM cisplatin, 72 hr, 37° C.
Experimental: as §2

BT-549 Gal-3 H^64 cells [6] = experiment: Cisplatin induced apoptosis, MTT assay; details: BT-549 cells expressing galectin-3 H^64 variant, 25 uM cisplatin, 72 hr, 37° C.
Experimental: as §2

**Q.** Which results are given for `N.N.[Cl][Pt][Cl]` [cisplatin]?
**A.** PARP cleavage (85 kDa cleaved polypeptide) (BT-549 cells [1]): showed the 85 kDa cleaved polypeptide of PARP; PARP cleavage (85 kDa cleaved polypeptide) (BT-549 Gal-3 P^64 cells [2]): showed the 85 kDa cleaved polypeptide of PARP; PARP cleavage (85 kDa cleaved polypeptide) (BT-549 Gal-3 H^64 cells [3]): refractive to PARP cleavage; apoptotic cells (BT-549 cells [4]): 76.5±1.34%; apoptotic cells (BT-549 Gal-3 P^64 cells [5]): 71.5±3.02%; apoptotic cells (BT-549 Gal-3 H^64 cells [6]): 36.2±2.2%
